From patent US20230067926A1, “SYSTEMS AND METHODS FOR MONITORING PLATELET ACTIVATION” (The Regents of the University of Michigan, priority 2021, published 2023)

Key:
[1] = tested on: activated platelets in whole blood; test: PDA liposome-9F9 microarray detection of activated platelets in whole blood; format: cell-based, human
Procedure: To fabricate the PDA liposome Microarray, the liposomes were covalently immobilized on amine-modified glass slides through the amine-epoxy chemistry. 0.5 mM PDA-epoxy liposome solution was spotted on amine-coated glass slides with a manual microarrayer (VP 475, V&P scientific, INC) and was incubated at 5° C. for 24 hrs to prevent fast drying of the spotted solution. After removing the unbound liposomes by rinsing with 5 mM of pH 8 HEPES buffer, the PDA liposome-spotted slides were incubated with 0.06 mg/ml of 9F9 antibody in 5 mM of pH 8 HEPES buffer for 1 hr. After removing the unbound antibodies by rinsing with 5 mM of pH 8 HEPES buffer. […]
Detection of Activated Platelet with PDA Liposome Microarray. […] After 20 mins of incubation, fluorescence microscope images were obtained on Olympus BX 71 microscope equipped with a mercury lamp and a cut-off filter of 540 nm excitation and 600 nm emission. For fluorescence signal intensity measurement, the fabricated PDA liposome-9F9 microarray was placed on top of a 96-well plate and the combined substrates were inserted into a plate reader. Fluorescence emission intensities at 634 nm of total 120 microarray spots from three different devices were individually measured by using the excitation wavelength of 548 nm. […]

[2] = tested on: collagen and epinephrine stimulated human platelets; test: cells; conditions: Platelet, read-out: IC50 of inhibition of collagen-stimulated platelet activation
Procedure: Fluorescence-activated Cell Sorting Analysis. […] Collagen (40 μg/ml) was then added (4 μl) and incubated for 2 min at room temperature in all tubes. Platelet activation was measured by using 20 μl of the anti-9F9 antibody-FITC and 10 μl of the constitutive platelet marker, anti-CD61-PE (Phycierythrin). As a control for the anti-9F9 antibody, 10 μl of the isotype control, anti-mouse IgG1-FITC, was used with 10 μl of anti-CD61-PE in a separate tube. The antibodies were incubated at room temperature in the dark for 15 minutes. After the incubation, 700 μl of 1% formalin/dPBS was added to each tube and stored at 4° C. for up to 24 hrs post fixing until ready to run the fluorescence-activated cell sorting (FACS) analysis on a FACSCalibur flow cytometer (Beckton Dickenson San Jose, Calif.). CellQuest software (Beckton Dickenson San Jose, Calif.) was employed for the data analysis.
Cell populations were identified for data collection by their log forward scatter (FSC) and log side scatter (SSC) light profiles. […] Mean fluorescence intensity (MFI) of the anti-9F9 immunostaining was quantitated by a FITC (FL1) versus PE (FL2) log plot analysis. […] The adjusted WI was expressed as the geometric mean channel fluorescence minus the appropriate isotype control. The platelet reactivity index (PRI) was calculated by the following equation: […]

Compound	red fluorescence intensity with added collagen relative to device without it ([1]; whole blood samples with and without 40 mg/ml of collagen, 20-min incubation (FIG. 2)) [times]	limit of detection of Tirofiban in the sample (fluorescence signal decrease) ([1]; whole blood with collagen, 20 mins incubation, PDA microarray fluorescence (FIG. 3)) [µM]	IC50 [2] [pM]
collagen	2.8	–	–
CCCCS(=O)(=O)N[C@@H](Cc1ccc(OCCCCC2CCNCC2)cc1)C(=O)O [Tirofiban]	–	0.16	~1.5
